One data set can be described thus: in vivo. To be noted: male, Sprague-Dawley, rat, iv, 10 mg/kg.
For data set [1] the following is noted: male, Sprague-Dawley, rat, in vivo, iv, 10 mg/kg.
In another data set the target is T1, scavenger receptor A1 (Mus musculus, UniProt P30204).
T1 construct: endogenous in cells; host or cells: Raw 264.7 macrophages
T1 sequence (P30204 1-458): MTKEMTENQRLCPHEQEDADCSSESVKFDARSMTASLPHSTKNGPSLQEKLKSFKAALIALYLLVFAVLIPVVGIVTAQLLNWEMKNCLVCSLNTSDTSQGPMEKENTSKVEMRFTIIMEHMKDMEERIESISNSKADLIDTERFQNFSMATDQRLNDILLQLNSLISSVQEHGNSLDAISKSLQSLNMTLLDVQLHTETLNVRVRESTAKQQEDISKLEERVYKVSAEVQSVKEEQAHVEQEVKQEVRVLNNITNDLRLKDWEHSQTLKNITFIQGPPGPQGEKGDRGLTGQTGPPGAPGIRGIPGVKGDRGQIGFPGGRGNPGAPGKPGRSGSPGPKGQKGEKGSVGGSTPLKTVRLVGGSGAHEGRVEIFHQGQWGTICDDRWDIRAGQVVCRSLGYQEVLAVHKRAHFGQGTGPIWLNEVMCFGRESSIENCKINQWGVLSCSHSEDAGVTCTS
Put plainly: Competitive inhibition of polymer-488 cell uptake by poly I / poly C in Raw 264.7 macrophages. The format is cell-based. Particulars: for inhibition of scavenger receptor interaction of polymer-488 (fluorescence): various concentrations of polymer-488 with inhibitor, Raw 264.7 macrophages (FIG. 3); for inhibition of polymer-488 fluorescence: various inhibitor concentrations, polymer-488 concentration constant, 37° C. 3 hours (FIG. 4). Here is the method: The fluorescently labelled poly(L-lysine succinylated) was also tested for cell uptake in a macrophage cell line Raw 264.7 in the presence of competitive inhibitors and relevant controls. […] At higher concentrations of polymer-488, fluorescence is seen due to competing off the poly I.
In a follow up study, cells were treated with various concentrations of either poly I or poly C while polymer-488 concentration remained constant. In this study, Raw 264.7 cells were incubated overnight at 400,000 cells/mL. The cells were treated with various concentrations of polymer-488 and either 200 μg/mL poly I, 200 μg/mL poly C, or no inhibitor. The cells were incubated at 37° C. for 3 hours, washed 3 times with media, and fluorescence measured.

What is called Tmax is the time at which the peak concentration occurs. One may read the Cmax as the highest concentration seen after dosing. As for `Nc1nc(=O)n([C@@H]2CS[C@H](CO)O2)cc1F` [Emtricitabine, emtricitabine], in the data set “in vivo”, the time to peak (Tmax) came to 4 h. The compound also had a Cmax in the data set “in vivo” (Cmax) of 86.7 ng/g. The Tlast in data set [1] amounted to 96 h.
For polycytidylic acid [poly C], at scavenger receptor A1, the “inhibition of scavenger receptor interaction of polymer-488 (fluorescence)” value is on record as “not with poly C” and the “inhibition of polymer-488 fluorescence” value was “virtually no inhibition of fluorescence”.
As for polyinosinic acid [poly I], on scavenger receptor A1, the “inhibition of scavenger receptor interaction of polymer-488 (fluorescence)” value was “inhibition of scavenger receptor interaction” and the “inhibition of polymer-488 fluorescence” value is “dose-dependent inhibition”.

For the origin of these results see patent US20200316213A1, “MACROMOLECULAR PLATFORM FOR TARGETING SCAVENGER RECEPTOR A1” (THE UNITED STATES OF AMERICA, AS REPRESENTED BY THE …, priority 2017, published 2020).
